Results published in ChEMBL document CHEMBL1154925 (Bioorg Med Chem Lett, 2010).
Calls of active or inactive are those of the source. No cut-off for these calls is given here.

Legend:
[1] = Half life in stimulated gastric fluid of pH 1.0; settings: simulated gastric fluid
[2] = target: T1, Prostaglandin G/H synthase 1 (Ovis aries, UniProt P05979)
T1 sequence (P05979 whole entry): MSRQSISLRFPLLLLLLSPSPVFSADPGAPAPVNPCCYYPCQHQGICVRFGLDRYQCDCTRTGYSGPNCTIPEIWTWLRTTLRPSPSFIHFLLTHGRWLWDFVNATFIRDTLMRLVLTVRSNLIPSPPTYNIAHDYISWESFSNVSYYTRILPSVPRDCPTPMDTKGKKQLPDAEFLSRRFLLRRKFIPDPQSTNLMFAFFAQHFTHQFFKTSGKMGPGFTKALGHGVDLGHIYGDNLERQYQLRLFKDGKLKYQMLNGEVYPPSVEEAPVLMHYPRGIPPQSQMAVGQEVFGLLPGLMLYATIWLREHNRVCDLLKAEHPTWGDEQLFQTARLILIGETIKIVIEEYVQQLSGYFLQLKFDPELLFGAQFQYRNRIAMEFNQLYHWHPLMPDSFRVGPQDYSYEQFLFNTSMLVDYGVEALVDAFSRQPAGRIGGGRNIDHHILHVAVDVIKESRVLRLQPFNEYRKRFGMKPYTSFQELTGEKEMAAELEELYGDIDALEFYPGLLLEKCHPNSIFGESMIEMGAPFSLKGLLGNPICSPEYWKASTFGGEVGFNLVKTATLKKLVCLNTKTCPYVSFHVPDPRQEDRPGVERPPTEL

[3] = target: T2, Prostaglandin G/H synthase 2 (Mus musculus, UniProt Q05769)
T2 sequence (Q05769 whole entry): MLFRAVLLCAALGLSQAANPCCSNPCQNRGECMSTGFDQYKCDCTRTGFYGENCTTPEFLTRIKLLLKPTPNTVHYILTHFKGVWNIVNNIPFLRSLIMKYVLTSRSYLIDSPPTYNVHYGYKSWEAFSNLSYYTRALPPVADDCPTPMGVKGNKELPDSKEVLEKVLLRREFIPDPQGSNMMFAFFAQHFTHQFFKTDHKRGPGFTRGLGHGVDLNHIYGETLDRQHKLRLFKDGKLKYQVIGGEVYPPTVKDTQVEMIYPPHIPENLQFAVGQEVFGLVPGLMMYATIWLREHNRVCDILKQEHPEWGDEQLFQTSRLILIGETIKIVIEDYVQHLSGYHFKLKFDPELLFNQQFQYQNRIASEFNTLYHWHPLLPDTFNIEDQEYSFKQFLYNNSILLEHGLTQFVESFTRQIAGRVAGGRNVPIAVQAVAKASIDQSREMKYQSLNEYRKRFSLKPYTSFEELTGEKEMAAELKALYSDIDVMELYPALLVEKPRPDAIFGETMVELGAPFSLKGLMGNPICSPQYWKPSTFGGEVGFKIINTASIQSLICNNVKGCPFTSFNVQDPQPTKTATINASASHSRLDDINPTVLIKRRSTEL

HEK293 = experiment: cells; settings: Homo sapiens, HEK293, 72 h
Raji = experiment: cells; settings: Homo sapiens, 72 h
[4] = target: Prostaglandin G/H synthase 1 (Homo sapiens) (UniProt P23219); experiment: Inhibition of human COX1
[5] = target: T3, Prostaglandin G/H synthase 2 (Homo sapiens) (UniProt P35354); experiment: Inhibition of human COX2
T3 sequence (whole entry): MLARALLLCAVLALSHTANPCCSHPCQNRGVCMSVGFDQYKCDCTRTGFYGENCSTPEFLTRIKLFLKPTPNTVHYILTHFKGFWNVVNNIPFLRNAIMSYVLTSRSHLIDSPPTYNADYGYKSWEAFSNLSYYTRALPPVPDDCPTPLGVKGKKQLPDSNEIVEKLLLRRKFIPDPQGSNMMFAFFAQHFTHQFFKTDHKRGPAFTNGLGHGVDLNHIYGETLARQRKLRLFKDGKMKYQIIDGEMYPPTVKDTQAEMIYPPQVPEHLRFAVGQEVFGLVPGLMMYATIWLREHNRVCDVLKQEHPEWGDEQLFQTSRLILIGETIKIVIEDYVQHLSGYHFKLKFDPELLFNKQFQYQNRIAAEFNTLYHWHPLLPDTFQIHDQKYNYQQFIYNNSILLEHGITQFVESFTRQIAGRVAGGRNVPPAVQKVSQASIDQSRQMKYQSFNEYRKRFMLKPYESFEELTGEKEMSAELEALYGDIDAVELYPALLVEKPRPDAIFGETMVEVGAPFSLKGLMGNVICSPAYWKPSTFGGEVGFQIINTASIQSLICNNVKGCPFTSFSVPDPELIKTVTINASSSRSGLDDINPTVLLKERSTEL

[6] = test system: Trypanosoma brucei brucei; experiment: microbe, parasite or virus in culture; settings: 48 h
[7] = test system: Trypanosoma brucei brucei; settings: 1 uM
[8] = test system: Trypanosoma brucei brucei; settings: 100 nM
[9] = test system: Trypanosoma brucei brucei; settings: 1 uM; remark: listed apart in the source
[10] = test system: Trypanosoma brucei brucei; settings: 100 nM; remark: listed apart in the source

Prostaglandin G/H synthase 1 (Homo sapiens), sequence (P23219 whole entry): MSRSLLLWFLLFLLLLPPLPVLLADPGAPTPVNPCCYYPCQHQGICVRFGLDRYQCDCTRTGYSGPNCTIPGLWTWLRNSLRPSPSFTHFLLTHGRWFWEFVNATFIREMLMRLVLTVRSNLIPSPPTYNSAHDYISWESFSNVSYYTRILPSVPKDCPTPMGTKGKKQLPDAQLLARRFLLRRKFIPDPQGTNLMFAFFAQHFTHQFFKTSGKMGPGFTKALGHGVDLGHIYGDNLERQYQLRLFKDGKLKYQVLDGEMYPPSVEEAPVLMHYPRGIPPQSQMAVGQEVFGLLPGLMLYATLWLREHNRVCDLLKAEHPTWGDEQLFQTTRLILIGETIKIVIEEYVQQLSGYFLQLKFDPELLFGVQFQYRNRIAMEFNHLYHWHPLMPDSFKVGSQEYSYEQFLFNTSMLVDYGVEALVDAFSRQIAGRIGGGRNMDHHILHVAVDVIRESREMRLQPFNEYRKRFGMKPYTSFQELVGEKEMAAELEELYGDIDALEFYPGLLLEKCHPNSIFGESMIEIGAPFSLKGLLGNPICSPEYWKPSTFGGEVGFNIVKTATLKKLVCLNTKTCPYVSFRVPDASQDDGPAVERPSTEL

Row | Compound | half-life [1] [h] | IC50 [2] [nM] | IC50 [3] [nM] | IC50 (HEK293) [nM] | IC50 (Raji) [nM] | inhibition [4] | inhibition [5] | IC50 [6] [nM] | inhibition [7] | inhibition [8] | inhibition [9] | inhibition [10]
1 | COc1ccc2cc([C@@H](C)C(=O)NCCCCNC(=O)CCC(=O)O[C@@H]3c4cc5c(cc4[C@H](c4cc(OC)c(OC)c(OC)c4)[C@@H]4C(=O)OC[C@H]43)OCO5)ccc2c1 | > 24 | > 4000 | > 4000 | 330 | 430 | – | – | – | – | – | – | –
2 | COc1ccc2c(c1)c(CC(=O)NCCCCCNC(=O)CCC(=O)O[C@@H]1c3cc4c(cc3[C@H](c3cc(OC)c(OC)c(OC)c3)[C@@H]3C(=O)OC[C@H]31)OCO4)c(C)n2C(=O)c1ccc(Cl)cc1 | > 24 | > 4000 | – | – | 280 | inactive | inactive | – | – | – | – | –
3 | COc1cc([C@H]2c3cc4c(cc3[C@@H](OC(=O)CCC(=O)NCCCCNC(=O)[C@@H](C)c3ccc(-c5ccccc5)c(F)c3)[C@@H]3COC(=O)[C@@H]23)OCO4)cc(OC)c1OC | > 24 | > 4000 | > 4000 | 180 | 180 | – | – | – | – | – | – | –
4 | COc1cc([C@H]2c3cc4c(cc3[C@@H](OC(=O)CCC(=O)NCc3ccc(NS(=O)(=O)c5cccc6c(N(C)C)cccc56)cc3)[C@@H]3COC(=O)[C@@H]23)OCO4)cc(OC)c1OC | > 24 | > 4000 | > 4000 | – | 37 | – | – | – | – | – | – | –
5 | COc1cc([C@H]2c3cc4c(cc3[C@@H](OC(=O)CCC(=O)NCCCCNC(=O)[C@@H](C)c3ccc(CC(C)C)cc3)[C@@H]3COC(=O)[C@@H]23)OCO4)cc(OC)c1OC | > 24 | > 4000 | > 4000 | 160 | 170 | – | – | – | – | – | – | –
6 | COc1cc([C@@H]2c3cc4c(cc3[C@H](O)[C@H]3COC(=O)[C@H]23)OCO4)cc(OC)c1OC [PODOFILOX] | > 24 | > 4000 | > 4000 | 17 | 18 | – | – | – | – | – | – | –
7 | COc1ccc2c(c1)c(CCNC(=O)CCC(=O)O[C@@H]1c3cc4c(cc3[C@H](c3cc(OC)c(OC)c(OC)c3)[C@@H]3C(=O)OC[C@H]31)OCO4)c(C)n2Cc1ccc(Br)cc1 | > 24 | > 4000 | > 4000 | 240 | 420 | – | – | – | – | – | – | –
8 | COc1ccc2c(c1)c(CC(=O)O)c(C)n2C(=O)c1ccc(Cl)cc1 [INDOMETHACIN] | > 24 | – | – | > 50000 | > 50000 | – | – | > 50000 | – | – | – | –
9 | COc1ccc2c(c1)c(CC(=O)NCCCCNC(=O)CCC(=O)O[C@@H]1c3cc4c(cc3[C@H](c3cc(OC)c(OC)c(OC)c3)[C@@H]3C(=O)OC[C@H]31)OCO4)c(C)n2C(=O)c1ccc(Cl)cc1 | > 24 | – | 295 | 160 | 120 | inactive | inactive | – | Active | Active | – | –
10 | COc1cc([C@H]2c3cc4c(cc3[C@@H](OC(=O)CCC(=O)NCCCCNC(=O)[C@@H](C)c3cccc(C(=O)c5ccccc5)c3)[C@@H]3COC(=O)[C@@H]23)OCO4)cc(OC)c1OC | > 24 | > 4000 | > 4000 | > 50000 | > 50000 | – | – | – | – | – | – | –
11 | COc1cc([C@H]2c3cc4c(cc3[C@@H](OC(=O)CCC(=O)NC[C@H](C)c3ccccc3)[C@@H]3COC(=O)[C@@H]23)OCO4)cc(OC)c1OC | > 24 | > 4000 | > 4000 | 360 | 540 | – | – | – | – | – | – | –
12 | COc1ccc2c(c1)c(CC(=O)NCCOC(=O)CCC(=O)O[C@@H]1c3cc4c(cc3[C@H](c3cc(OC)c(OC)c(OC)c3)[C@@H]3C(=O)OC[C@H]31)OCO4)c(C)n2C(=O)c1ccc(Cl)cc1 | > 24 | – | – | 860 | 1300 | inactive | inactive | – | – | – | – | –
13 | COc1ccc2c(c1)c(CC(=O)N1CCN(C(=O)CCC(=O)O[C@@H]3c4cc5c(cc4[C@H](c4cc(OC)c(OC)c(OC)c4)[C@@H]4C(=O)OC[C@H]43)OCO5)CC1)c(C)n2C(=O)c1ccc(Cl)cc1 | > 24 | – | – | 520 | 510 | inactive | inactive | – | – | – | – | –
14 | COc1ccc(CCNC(=O)CCC(=O)O[C@@H]2c3cc4c(cc3[C@H](c3cc(OC)c(OC)c(OC)c3)[C@@H]3C(=O)OC[C@H]32)OCO4)cc1 | > 24 | > 4000 | > 4000 | 79 | 130 | – | – | – | – | – | – | –
15 | CO[C@@H](/C(C)=C/C=C/C(C)=C/c1coc(C)n1)[C@@H](C)[C@@H]1C[C@H](O)[C@@]2(C)O[C@@H]2/C=C/[C@@H](C)[C@H]2C[C@H](CC(=O)O2)C[C@@H]2O[C@H]2C(=O)O1 [RHIZOXIN] | > 24 | – | – | 350 | 340 | – | – | – | – | – | Active | Active
16 | COc1cc([C@@H]2c3cc4c(cc3[C@H](OC(=O)CCC(=O)O)[C@H]3COC(=O)[C@H]23)OCO4)cc(OC)c1OC [SUCCINYLPODOPHYLLOTOXIN] | > 24 | > 4000 | > 4000 | 76 | 100 | – | – | – | – | – | – | –
